Measured values published in a flash point compilation (Sun et al. 2020).
“And” between values parts separate entries of the source, which are not always exact repeats. Equal values may be shown once.

SMILES | flash point
C=CCOc1ccccc1 [allyloxybenzene] | 62.00 °C
OCc1ccco1 [2-furylmethanol] | 83.33 °C
CC(C)(C)CCO [3,3-dimethylbutan-1-ol] | 29.00 °C
C/C=C\C [(z)-but-2-ene] | -73.00 °C
CCC(C)O (stereo unspecified) [butan-2-ol] | 22.22 °C
CCCCOCC1CO1 (stereo unspecified) [2-(butoxymethyl)oxirane] | 41.00 °C
C1=CCCCC1 [cyclohexene] | -30.00 °C
CC(=O)c1ccccn1 [1-(2-pyridyl)ethanone] | 76.00 °C
Nc1ccccc1Cl [2-chloroaniline] | 98.00 °C
OCCCCCO [pentane-1,5-diol] | 129.44 °C
CN(C)C=O [N,N-dimethylformamide] | 57.00 °C
C1COCCO1 [1,4-dioxane] | 18.33 °C
COCCOCCOCCOC [1,2-bis(2-methoxyethoxy)ethane] | 113.00 °C
COCCCl [1-chloro-2-methoxyethane] | 15.00 °C
CC(C)(C)c1cccc(C(C)(C)C)n1 [2,6-ditert-butylpyridine] | 72.00 °C
OCCCCO [butane-1,4-diol] | 121.11 °C
ClCCOCCCl [1-chloro-2-(2-chloroethoxy)ethane] | 55.00 °C
OCCOCCO [2-(2-hydroxyethoxy)ethanol] | 138.33 °C and 143.00 °C
OCCOCCOCCO [2-[2-(2-hydroxyethoxy)ethoxy]ethanol] | 162.78 °C
c1ccc(OCC2CO2)cc1 (stereo unspecified) [2-(phenoxymethyl)oxirane] | 115.00 °C
Clc1ccccn1 [2-chloropyridine] | 64.00 °C
OCC(CO)(CO)CO [2,2-bis(hydroxymethyl)propane-1,3-diol] | 240.00 °C
Clc1ccc(Oc2ccccc2)cc1 [1-chloro-4-(phenoxy)benzene] | 113.00 °C
CCC(CC)(CO)CO [2,2-diethylpropane-1,3-diol] | 107.00 °C
OCc1ccc(CO)cc1 [[4-(hydroxymethyl)phenyl]methanol] | 187.80 °C
CCC(C)CC(O)CC (stereo unspecified) [5-methylheptan-3-ol] | 54.00 °C
CC(O)CCO (stereo unspecified) [butane-1,3-diol] | 108.89 °C

SMILES | flash point
CCCCCC(C)N (stereo unspecified) [heptan-2-amine] | 54.00 °C
C=CC(O)CCCCC (stereo unspecified) [oct-1-en-3-ol] | 68.00 °C
COCC(C)O (stereo unspecified) [1-methoxypropan-2-ol] | 33.00 °C
CCCCCCO [hexan-1-ol] | 73.89 °C
CCCCC(C)(O)CC (stereo unspecified) [3-methylheptan-3-ol] | 54.00 °C
CCCCC(CC)(CO)CO [2-butyl-2-ethylpropane-1,3-diol] | 113.00 °C
CC(Cl)OC(C)Cl (stereo unspecified) [1-chloro-1-(1-chloroethoxy)ethane] | 55.00 °C
CC(C)CCOCCC(C)C [1-isopentyloxy-3-methylbutane] | 46.00 °C
CCCCOCCOCCOCCCC [1-[2-(2-butoxyethoxy)ethoxy]butane] | 101.00 °C
CCN(CC)CCO [2-diethylaminoethanol] | 51.50 °C
CC(CO)(CO)CO [2-(hydroxymethyl)-2-methylpropane-1,3-diol] | 160.00 °C
C=COCC [ethoxyethylene] | -46.00 °C
CCC(C)(C)O [2-methylbutan-2-ol] | 20.00 °C
CCNCC [N-ethylethanamine] | -28.00 °C
CCCC(C)O (stereo unspecified) [pentan-2-ol] | 40.56 °C
CCCCCCC(C)O (stereo unspecified) [octan-2-ol] | 85.00 °C
COc1ccccc1OC [1,2-dimethoxybenzene] | 72.00 °C
OCCCO [propane-1,3-diol] | 79.00 °C
CC(O)CCl (stereo unspecified) [1-chloropropan-2-ol] | 51.00 °C
CC(C)C(C)C(C)CO (stereo unspecified) [2,3,4-trimethylpentan-1-ol] | 60.00 °C
CCC(CC)CO [2-ethylbutan-1-ol] | 58.33 °C
CCCCCCCCCCCCCO [tridecan-1-ol] | 116.00 °C
CCCCCCCCO [octan-1-ol] | 90.56 °C
CCCCCCCCCCO [decan-1-ol] | 104.44 °C
C=CC1CC=CCC1 (stereo unspecified) [4-vinylcyclohexene] | 21.00 °C
Nc1cccc(Cl)c1 [3-chloroaniline] | 118.00 °C
CCCCCCCCCCCCCCO [tetradecan-1-ol] | 145.00 °C

remark: another data set of the same source

SMILES | flash point [°C]
CCC(C)O (stereo unspecified) [butan-2-ol] | 24.00
CCCCOCC1CO1 (stereo unspecified) [2-(butoxymethyl)oxirane] | 54.00
CN(C)C=O [N,N-dimethylformamide] | 67.00
C1COCCO1 [1,4-dioxane] | 12.00
CCCCCCO [hexan-1-ol] | 63.00
CCCCOCCOCCOCCCC [1-[2-(2-butoxyethoxy)ethoxy]butane] | 118.00
CCC(C)(C)O [2-methylbutan-2-ol] | 19.00
CCNCC [N-ethylethanamine] | -29.00
CCCC(C)O (stereo unspecified) [pentan-2-ol] | 35.00
CCCCCCC(C)O (stereo unspecified) [octan-2-ol] | 76.00
CCC(CC)CO [2-ethylbutan-1-ol] | 53.00
CCCCCCCCCCCCCO [tridecan-1-ol] | 121.00
CCCCCCCCO [octan-1-ol] | 81.00
CCCCCCCCCCO [decan-1-ol] | 82.00
CCCCCCCCCCCCCCO [tetradecan-1-ol] | 141.00

remark: another data set of the same source

SMILES | flash point [°C]
O=C=N[Si](N=C=O)(N=C=O)N=C=O [Tetraisocyanatosilane] | 50.00
CC(=O)O[Si](C)(OC(C)=O)OC(C)=O [Methyltriacetoxysilane] [listing 1 of 2 here] | 85.00

remark: another data set of the same source

SMILES | flash point [°C]
C[Si](C)(C)O[Si](C)(C)O[Si](C)(C)O[Si](C)(C)O[Si](C)(C)O[Si](C)(C)C [Tetradecamethylhexasiloxane] | 102.00
Clc1ccc([Si](Cl)(Cl)Cl)cc1 [Trichloro(p-chlorophenyl)silane] | 123.90
C[Si](C)(C)CBr [Bromomethyltrimethylsilane] | 16.00
C[Si](C)(C)O[Si](C)(C)O[Si](C)(C)C [Octamethyltrisiloxane] | 30.00
C=C[Si](C)(C)N[Si](C)(C)C=C [1,3-Divinyltetramethyldisilazane] | 34.00
C[Si](Cl)(Cl)CCCCl [3-Chloropropylmethyldichlorosilane] | 86.00
CC[Si](Cl)(CC)CC [Triethylchlorosilane] | 30.00
CCCO[Si](OCCC)(OCCC)OCCC [Tetra-n-propoxysilane] | 95.00
C[Si](C)(C)O[SiH](O[Si](C)(C)C)O[Si](C)(C)C [Tris(trimethylsiloxy)silane] | 50.00
CN([Si](C)(C)C)[Si](C)(C)C [Heptamethyldisilazane] | 27.00
CCCCCC[Si](OC)(OC)OC [Hexyltrimethoxysilane] | 62.00
C[Si](C)(C)O[SiH2]O[Si](C)(C)C [Hexamethyltrisiloxane] | 20.00
CC(C)(C)[Si](Cl)(Cl)Cl [t-Butyltrichlorosilane] | 21.00
CCO[Si](C)(C)OCC [Dimethyldiethoxysilane] | 11.00
CCO[Si](OCC)(OCC)c1ccccc1 [Phenyltriethoxysilane] | 120.00
C[Si](C)(C)I [Iodotrimethylsilane] | 15.00
Cl[SiH](Cl)c1ccccc1 [Phenyldichlorosilane] | 60.00
Cl[SiH](Cl)C1CCCC1 [Cyclopentyldichlorosilane] | 43.00
CC[Si](CC)(CC)CC [Tetraethylsilane] | 32.00
CCCCCCC[Si](Cl)(Cl)Cl [n-Heptyltrichlorosilane] | 64.00
CCCCCC[SiH](Cl)Cl [Hexyldichlorosilane] | 64.00

SMILES | flash point [°C]
C[Si](Cl)(c1ccccc1)c1ccccc1 [Methyldiphenylchlorosilane] | 138.00
CCO[Si](C)(C)C [Ethoxytrimethylsilane] | -27.00
CCO[Si](OCC)(OCC)OCC [Tetraethoxysilane] | 50.00
Cl[Si](Cl)(Cl)C1CCCC1 [Cyclopentyltrichlorosilane] | 77.00
C=C[Si](OCC)(OCC)OCC [Vinyltriethoxysilane] | 34.00
C[Si](C)(C)O[Si](C)(C)O[Si](C)(C)O[Si](C)(C)O[Si](C)(C)O[Si](C)(C)O[Si](C)(C)C [Hexadecamethylheptasiloxane] | 133.00
CO[Si](C)(OC)OC [Methyltrimethoxysilane] | 11.00
CCO[Si](C)(C)CCl [Chloromethyldimethylethoxysilane] | 26.00
C=C[Si](C=C)(C=C)C=C [Tetravinylsilane] | 18.00
C[Si](C)(C)O[Si](C)(C)O[Si](C)(C)O[Si](C)(C)O[Si](C)(C)O[Si](C)(C)O[Si](C)(C)O[Si](C)(C)C [Octadecamethyloctasiloxane] | 144.00
C[Si]1(C)O[Si](C)(C)O[Si](C)(C)O[Si](C)(C)O1 [Octamethylcyclotetrasiloxane] | 57.00
CCCCCCC[Si](C)(Cl)Cl [n-Heptylmethyldichlorosilane] | 66.00
C[Si](C)(C)c1ccccc1 [Trimethylphenylsilane] | 40.00
C[Si](C)(C)Br [Trimethylbromosilane] | -3.00
CC[Si](C)(Cl)CC [Diethylmethylchlorosilane] | 15.00
CC(=O)O[Si](C)(OC(C)=O)OC(C)=O [Methyltriacetoxysilane] [listing 2 of 2 here] | 85.00
C[Si](Cl)(Cl)C(Cl)Cl [Dichloromethylmethyldichlorosilane] | 28.00
CCCCCC[SiH3] [Hexylsilane] | 12.00
CC(C)[SiH](C(C)C)C(C)C [Triisopropylsilane] | 37.00
C[Si](Cl)(Cl)CCC#N [Cyanoethylmethyldichlorosilane] | 60.00
C[Si](C)(C)OC(=O)C(F)(F)F [Trimethylsilyltrifluoroacetate] | 0.00

remark: another data set of the same source

SMILES | flash point [°C]
C1=CCCCC1 [cyclohexene] | -17

remark: another data set of the same source

SMILES | flash point [°C]
C1=CCCCC1 [cyclohexene] | -12
Clc1ccccn1 [2-chloropyridine] | 66
